The record followed here is patent US8329755B2, “Methods for treating retroviral infections” (Roche Palo Alto LLC, priority 2004, dated 2012).

With `CCc1ccc(CC(=O)Nc2ccc(S(N)(=O)=O)cc2)cc1Oc1cc(Cl)cc(Br)c1Cl` [Compound I-35, 2-[3-(3-Bromo-2,5-dichloro-phenoxy)-4-ethyl-phenyl]-N-(4-sulfamoyl-phenyl)-acetamide], the melting point (in general, the temperature of the solid-liquid transition) lay in the range of 206.9 to 209.9 °C. The same measure for `CCc1ccc(CC(=O)Nc2ccc(S(N)(=O)=O)cc2C)cc1Oc1cc(Cl)cc(Br)c1Cl` [Compound I-36, 2-[3-(3-Bromo-2,5-dichloro-phenoxy)-4-ethyl-phenyl]-N-(2-methyl-4-sulfamoyl-phenyl)-acetamide]: 213.2 to 219.6 °C; for `CCc1ccc(CC(=O)Nc2ccccc2Cl)cc1Oc1cc(Cl)cc(Br)c1Cl` [Compound I-37, 2-[3-(3-Bromo-2,5-dichloro-phenoxy)-4-ethyl-phenyl]-N-(2-chloro-phenyl)-acetamide]: 146.5 to 147.6 °C.

For the molecule `CCc1ccc(CC(=O)Nc2ccccc2Cl)cc1Oc1cc(Br)cc(Br)c1Cl` [Compound I-38, N-(2-Chloro-phenyl)-2-[3-(3,5-dibromo-2-chloro-phenoxy)-4-ethyl-phenyl]-acetamide], the melting point was in the range of 155.5 to 155.8 °C. Molecule `CCc1ccc(CC(=O)Nc2ccc(S(N)(=O)=O)cc2)cc1Oc1cc(Br)cc(F)c1Cl` [Compound I-39, 2-[3-(5-Bromo-2-chloro-3-fluoro-phenoxy)-4-ethyl-phenyl]-N-(4-sulfamoyl-phenyl)-acetamide] displayed a melting point of 209.9 to 211.1 °C. `CCc1ccc(CC(=O)Nc2ccc(S(N)(=O)=O)cc2C)cc1Oc1cc(Br)cc(F)c1Cl` [Compound I-40, 2-[3-(5-Bromo-2-chloro-3-fluoro-phenoxy)-4-ethyl-phenyl]-N-(2-methyl-4-sulfamoyl-phenyl)-acetamide] gave a melting point of 207 to 209.9 °C. Molecule `CCc1ccc(CC(=O)Nc2ccccc2Cl)cc1Oc1cc(Br)cc(F)c1Cl` [Compound I-41, 2-[3-(5-Bromo-2-chloro-3-fluoro-phenoxy)-4-ethyl-phenyl]-N-(2-chloro-phenyl)-acetamide] came in with a melting point of 146.6 to 147.2 °C.

Consider `Cc1cc(S(N)(=O)=O)ccc1NC(=O)Cc1ccc(C)c(Oc2cc(C#N)cc(C#N)c2)c1` [Compound I-43, 2-[3-(3,5-Dicyano-phenoxy)-4-methyl-phenyl]-N-(2-methyl-4-sulfamoyl-phenyl)-acetamide], for which the melting point was in the range of 228.6 to 230.9 °C. Under `Cc1ccc(CC(=O)Nc2ccc(S(N)(=O)=O)cc2Cl)cc1Oc1cc(C#N)cc(C#N)c1` [Compound I-44, N-(2-Chloro-4-sulfamoyl-phenyl)-2-[3-(3,5-dicyano-phenoxy)-4-methyl-phenyl]-acetamide] stands 209.9 to 211.5 °C; under `CCc1ccc(CC(=O)Nc2ccc(S(N)(=O)=O)cc2)cc1Oc1cc(Cl)cc(C#N)c1` [Compound I-45, 2-[3-(3-Chloro-5-cyano-phenoxy)-4-ethyl-phenyl]-N-(4-sulfamoyl-phenyl)-acetamide], 170.7 to 172.4 °C; under `CCc1ccc(CC(=O)Nc2ccc(S(N)(=O)=O)cc2C)cc1Oc1cc(Cl)cc(C#N)c1` [Compound I-46, 2-[3-(3-Chloro-5-cyano-phenoxy)-4-ethyl-phenyl]-N-(2-methyl-4-sulfamoyl-phenyl)-acetamide], 189.1 to 189.4 °C. Under `CCc1ccc(CC(=O)Nc2ccc(S(N)(=O)=O)cc2Cl)cc1Oc1cc(Cl)cc(C#N)c1` [Compound I-47, 2-[3-(3-Chloro-5-cyano-phenoxy)-4-ethyl-phenyl]-N-(2-chloro-4-sulfamoyl-phenyl)-acetamide] stands 181.1 to 183.9 °C. Turning to `CCc1ccc(CC(=O)Nc2ccc(S(=O)(=O)NC)cc2)cc1Oc1cc(Cl)cc(C#N)c1` [Compound I-48, 2-[3-(3-Chloro-5-cyano-phenoxy)-4-ethyl-phenyl]-N-(4-methylsulfamoyl-phenyl)-acetamide], the melting point was 149.1 to 151.3 °C. As to `CCc1ccc(CC(=O)Nc2ccc(S(N)(=O)=O)cc2)cc1Oc1cc(C#N)cc(F)c1Cl` [Compound I-49, 2-[3-(2-Chloro-5-cyano-3-fluoro-phenoxy)-4-ethyl-phenyl]-N-(4-sulfamoyl-phenyl)-acetamide], the melting point is 167.9 to 170.5 °C. Under `CCc1ccc(CC(=O)Nc2ccc(S(N)(=O)=O)cc2C)cc1Oc1cc(C#N)cc(F)c1Cl` [Compound I-50, 2-[3-(2-Chloro-5-cyano-3-fluoro-phenoxy)-4-ethyl-phenyl]-N-(2-methyl-4-sulfamoyl-phenyl)-acetamide] stands 217.6 to 220.4 °C. In turn, `CCc1ccc(CC(=O)Nc2ccc(S(N)(=O)=O)cc2)cc1Oc1cc(C#N)cc(C#N)c1Cl` [Compound I-52, 2-[3-(2-Chloro-3,5-dicyano-phenoxy)-4-ethyl-phenyl]-N-(4-sulfamoyl-phenyl)-acetamide] displayed a melting point of 119.7 to 123.3 °C. Under `CCc1ccc(CC(=O)Nc2ccc(S(N)(=O)=O)cc2C)cc1Oc1cc(C#N)cc(C#N)c1Cl` [Compound I-53, 2-[3-(2-Chloro-3,5-dicyano-phenoxy)-4-ethyl-phenyl]-N-(2-methyl-4-sulfamoyl-phenyl)-acetamide] stands 199.4 to 205.3 °C. `CCc1ccc(CC(=O)Nc2ccc(S(N)(=O)=O)cc2Cl)cc1Oc1cc(C#N)cc(C#N)c1Cl` [Compound I-54, 2-[3-(2-Chloro-3,5-dicyano-phenoxy)-4-ethyl-phenyl]-N-(2-chloro-4-sulfamoyl-phenyl)-acetamide] had a melting point of 180.3 to 183.1 °C.

`Cc1cc(C#N)cc(C)c1Oc1cc(CC(=O)Nc2ccc(S(N)(=O)=O)cc2)ccc1Cl` [Compound I-55, 2-[4-Chloro-3-(4-cyano-2,6-dimethyl-phenoxy)-phenyl]-N-(4-sulfamoyl-phenyl)-acetamide] displayed a melting point of 227.3 to 231.4 °C. Take `Cc1cc(S(N)(=O)=O)ccc1NC(=O)Cc1ccc(Cl)c(Oc2c(C)cc(C#N)cc2C)c1` [Compound I-56, 2-[4-Chloro-3-(4-cyano-2,6-dimethyl-phenoxy)-phenyl]-N-(2-methyl-4-sulfamoyl-phenyl)-acetamide]: the melting point lay in the range of 232.1 to 234.6 °C. The same measure for `COc1ccc(CC(=O)Nc2ccc(S(N)(=O)=O)cc2)cc1Oc1cc(Cl)cc(C#N)c1` [Compound I-57, 2-[3-(3-Chloro-5-cyano-phenoxy)-4-methoxy-phenyl]-N-(4-sulfamoyl-phenyl)-acetamide]: 218.3 to 221.4 °C. The molecule `CCc1ccc(CC(=O)Nc2ccccc2Cl)cc1Oc1cc(C#N)cc(F)c1Cl` [Compound I-59, 2-[3-(2-Chloro-5-cyano-3-fluoro-phenoxy)-4-ethyl-phenyl]-N-(2-chloro-phenyl)-acetamide] registered a melting point of 142.1 to 142.8 °C.

Consider `CCc1ccc(CC(=O)Nc2ccccc2Cl)cc1Oc1cc(C#N)cc(C#N)c1Cl` [Compound I-60, 2-[3-(2-Chloro-3,5-dicyano-phenoxy)-4-ethyl-phenyl]-N-(2-chloro-phenyl)-acetamide], for which the melting point lay within 110 to 111.5 °C. The molecule `COc1ccc(CC(=O)Nc2ccccc2Cl)cc1Oc1cc(Cl)cc(C#N)c1` [Compound I-61, 2-[3-(3-Chloro-5-cyano-phenoxy)-4-methoxy-phenyl]-N-(2-chloro-phenyl)-acetamide] yielded a melting point of 175.7 to 178.3 °C. The same measure for `COc1ccc(CC(=O)Nc2ccccc2Cl)cc1Oc1cc(C#N)ccc1Cl` [Compound I-62, 2-[3-(2-Chloro-5-cyano-phenoxy)-4-methoxy-phenyl]-N-(2-chloro-phenyl)-acetamide]: 194 to 197.8 °C; for `COc1ccc(CC(=O)Nc2ccc(S(N)(=O)=O)cc2Cl)cc1Oc1cc(Cl)cc(C#N)c1` [Compound I-64, 2-[3-(3-Chloro-5-cyano-phenoxy)-4-methoxy-phenyl]-N-(2-chloro-4-sulfamoyl-phenyl)-acetamide]: 186.3 to 189.7 °C; for `COc1ccc(CC(=O)Nc2ccc(S(N)(=O)=O)cc2)cc1Oc1cc(C#N)ccc1Cl` [Compound I-65, 2-[3-(2-Chloro-5-cyano-phenoxy)-4-methoxy-phenyl]-N-(4-sulfamoyl-phenyl)-acetamide]: 252.3 to 254.3 °C. Take `COc1ccc(CC(=O)Nc2ccc(S(N)(=O)=O)cc2C)cc1Oc1cc(C#N)ccc1Cl` [Compound I-66, 2-[3-(2-Chloro-5-cyano-phenoxy)-4-methoxy-phenyl]-N-(2-methyl-4-sulfamoyl-phenyl)-acetamide]: the melting point was 232.9 to 236.9 °C. In turn, `COc1ccc(CC(=O)Nc2ccc(S(N)(=O)=O)cc2Cl)cc1Oc1cc(C#N)ccc1Cl` [Compound I-67, 2-[3-(2-Chloro-5-cyano-phenoxy)-4-methoxy-phenyl]-N-(2-chloro-4-sulfamoyl-phenyl)-acetamide] registered a melting point of 214.6 to 216.4 °C. Under `Cc1cc(C#N)cc(C)c1Oc1cc(CC(=O)Nc2ccccc2Cl)ccc1Cl` [Compound I-68, 2-[4-Chloro-3-(4-cyano-2,6-dimethyl-phenoxy)-phenyl]-N-(2-chloro-phenyl)-acetamide] stands 183.9 to 185.1 °C; under `COc1ccc(CC(=O)Nc2ccc(S(N)(=O)=O)cc2C)cc1Oc1cc(Cl)cc(C#N)c1` [Compound I-73, 2-[3-(3-Chloro-5-cyano-phenoxy)-4-methoxy-phenyl]-N-(2-methyl-4-sulfamoyl-phenyl)-acetamide], 222.3 to 224.3 °C. The same measure for `Cc1cc(S(N)(=O)=O)ccc1NC(=O)Cc1ccc(C)c(Oc2cc(Cl)cc(C#N)c2)c1F` [Compound I-74, 2-[3-(3-Chloro-5-cyano-phenoxy)-2-fluoro-4-methyl-phenyl]-N-(2-methyl-4-sulfamoyl-phenyl)-acetamide]: 230 to 232.2 °C; for `Cc1ccc(CC(=O)Nc2ccc(S(N)(=O)=O)cc2Cl)c(F)c1Oc1cc(Cl)cc(C#N)c1` [Compound I-83, 2-[3-(3-Chloro-5-cyano-phenoxy)-2-fluoro-4-methyl-phenyl]-N-(2-chloro-4-sulfamoyl-phenyl)-acetamide]: 228.9 to 230.6 °C.

`Cc1ccc(CC(=O)Nc2ccc(S(N)(=O)=O)cc2Cl)c(F)c1Oc1cc(C#N)cc(C(F)F)c1` [Compound I-84, N-(2-Chloro-4-sulfamoyl-phenyl)-2-[3-(3-cyano-5-difluoromethyl-phenoxy)-2-fluoro-4-methyl-phenyl]-acetamide] returned a melting point of 218 to 218.7 °C.
